The values below come from US12678421B2, “Composition for enhancing NAMPT gene expression” (DAICEL CORPORATION, priority 2020, dated 2026).

The test system of test [1] is NAMPT gene. The test can be described thus: NAMPT gene expression in Caco-2 cells (real-time PCR). The class given is cell-based, human. As to conditions: 10 μM, 24 hours after addition, relative to β-actin, vs DMSO control (FIG. 1). As to the method: (§1) Human colon cancer-derived cell line Caco-2 cells (colon, epithelial-like, colorectal adenocarcinoma, human, ATCC HTB-37) were passaged using DMEM (containing 10% FBS, antibiotics (penicillin and streptomycin), and NaHCO3) medium in a CO2 incubator under conditions of 37° C., 5% CO2, and 95% air, and used for testing.
(§2) Caco-2 cells were seeded in a 12-well plate at a cell concentration of 3×10^5 cells/dish, and equol dissolved in DMSO was added at a final concentration of 10 μM after 24 hours and 48 hours. In addition, the same amount of DMSO was added to a control, and resveratrol (Wako Pure Chemical Industries, Ltd.) was added to a positive control at a final concentration of 10 μM.
(§3) Cells were harvested 24 hours after the addition of equol, and total RNA was extracted. cDNA was synthesized using the total RNA and was used as a template for real-time PCR. Real-time PCR was performed using a primer of each gene and the prepared cDNA to measure the expression level of each gene. In addition, the relative gene expression level was calculated using β-actin, which is a housekeeping gene, by dividing the measured value by the expression level of β-actin. The orientation of the primer sequences is 5′ to 3′ from left to right.

The subject of test [2] is SIRT1 gene. Kind of test: SIRT1 gene expression in Caco-2 cells (real-time PCR). The format is cell-based, human. As to conditions: 10 μM, 24 hours after addition, relative to β-actin, vs DMSO control (FIG. 2). On the procedure:
as §1, §2, §3

For test [3], the system named is PGC-1α gene. Kind of test: PGC-1α gene expression in Caco-2 cells (real-time PCR). The class given is cell-based, human. As to conditions: 10 μM, 24 hours after addition, relative to β-actin, vs DMSO control (FIG. 3). On the procedure: as §1, §2, §3
In test [4] the test system is Caco-2 cells. Kind of test: Intracellular NAD^+/NADH quantification in Caco-2 cells. The format is cell-based, human. As to conditions: 10 μM, 24 hours after addition, vs DMSO control (FIG. 4). On the procedure:
(§4) Caco-2 cells were passaged in the same manner as in Example 1 and used for testing. Caco-2 cells were seeded in a 5-mL dish at a cell concentration of 3×10^5 cells/dish, and equol was added in the same manner as in Example 1. In addition, a control and a positive control were prepared in the same manner as well.
The medium was removed 24 hours after the addition of equol, the cells were washed with PBS, then intracellular NAD^+ and NADH were measured using an NAD^+/NADH quantification kit (BioVision, San Francisco, USA), and the NAD^+/NADH ratio was determined.

The test system of the next test is PGC-1α. Kind of test: PGC-1α expression level and acetyl PGC-1α level in Caco-2 cells (Western blotting, immunoprecipitation). The class given is cell-based, human. As to conditions: 10 μM, 24 hours after addition, vs DMSO control (FIGS. 5-1, 5-2). As to the method:
as §4
The medium was removed 24 hours after the addition of equol, the cells were washed with PBS, and then cellular proteins were extracted. The extracted proteins were subjected to Western blotting using an anti-PGC-1α antibody (ab77210, abcam, Cambridge, UK) to measure the expression level of PGC-1α. Furthermore, after immunoprecipitation using an anti-acetylated-lysine antibody (#9441S, Cell Signaling Technology, Danvers, MA, USA), the acetyl PGC-1α level was measured by Western blotting.

Test [5] relates to Caco-2 cells. The test can be described thus: Intracellular mitochondria in Caco-2 cells (MitoTracker staining, imaging cytometer). As to conditions: 10 μM, 24 hours after addition, vs DMSO control (FIG. 6). The class given is cell-based, human. On the procedure: Caco-2 cells were passaged in the same manner as in Example 1 and used for testing. Caco-2 cells were seeded in a μClear Fluorescence Black Plate (Greiner Bio-one) at a cell concentration of 5×10^3 cells/dish, and equol was added in the same manner as in Example 1. In addition, a control and a positive control were prepared in the same manner as well.
(§5) Mitochondria were stained using MotoTracker Red CMXRos (Invitrogen Corporation) 24 hours after the addition of equol. The cells were subjected to NI Cell Analyzer 1000 Imaging Cytometer (GE Healthcare Bio-Sciences Corp, Piscataway, NJ, USA) to detect intracellular mitochondria, and the image data were digitized using “mito Tracker” of NI Cell Analyzer 1000 Workstation (GE Healthcare Bio-Sciences Corp, Piscataway, NJ, USA).

Test [6] relates to NAMPT gene. Kind of test: NAMPT gene expression in C2C12 cells (real-time PCR). The format is cell-based, mouse. As to conditions: C2C12 cells (myotubes), 10 μM, 24 hours after addition, relative to β-actin, vs DMSO control (FIG. 7). On the procedure:
(§6) Mouse skeletal muscle-derived myoblast cell line C2C12 cells (Muscle, Myoblast, Mus musculus, mouse, ATCC CRL-1772 (strain C3H)) were passaged using DMEM (containing 10% FBS, antibiotics (penicillin and streptomycin), and NaHCO3) medium in a CO2 incubator under conditions of 37° C., 5% CO2, and 95% air.
(§7) After the C2C12 cells reached about 90% confluence, the serum in the medium was replaced with inactivated horse serum, and the serum concentration was lowered to 2% to induce differentiation. Cells on day 5 after differentiation induction were used as C2C12 myotubes for testing.
(§8) C2C12 cells were seeded in a 12-well plate at a cell concentration of 3×10^5 cells/dish, and equol dissolved in DMSO was added at a final concentration of 10 μM after 24 hours and 48 hours. In addition, the same amount of DMSO was added to a control, and resveratrol was added to a positive control at a final concentration of 10 μM.
(§9) Cells were harvested 24 hours after the addition of equol, and total RNA was extracted. cDNA was synthesized using the total RNA and was used as a template for real-time PCR. […] In addition, the relative gene expression level was calculated using β-actin, which is a housekeeping gene, by dividing the measured value by the expression level of β-actin.

Test [7] concerns SIRT1 gene. Kind of test: SIRT1 gene expression in C2C12 cells (real-time PCR). The format is cell-based, mouse. As to conditions: C2C12 cells (myotubes), 10 μM, 24 hours after addition, relative to β-actin, vs DMSO control (FIG. 8). On the procedure: as §6, §7, §8, §9
Test [8] deals with PGC-1α gene. Kind of test: PGC-1α gene expression in C2C12 cells (real-time PCR). The class given is cell-based, mouse. As to conditions: C2C12 cells (myotubes), 10 μM, 24 hours after addition, relative to β-actin, vs DMSO control (FIG. 9). As to the method: as §6, §7, §8, §9
For a further test, the system named is C2C12 cells. The test can be described thus: Intracellular mitochondria in C2C12 myotubes (MitoTracker staining, imaging cytometer). The class given is cell-based, mouse. As to conditions: 10 μM, 72 hours after addition, vs DMSO control (FIG. 10). On the procedure: as §5
C2C12 cells were passaged in the same manner as in Example 7 and used for testing. C2C12 cells were seeded in a μClear Fluorescence Black Plate (Greiner Bio-one) at a cell concentration of 1×10^4 cells/well. After the cells reached about 90% confluence, the serum in the medium was replaced with inactivated horse serum, and the serum concentration was lowered to 2% to induce differentiation. Cells on day 5 after differentiation induction were used as C2C12 myotubes for testing.
Equol was added in the same manner as in Example 1. In addition, the same amount of DMSO was also used for a control.
The number of mitochondria was measured 72 hours after the addition of equol in the same manner as in Example 4.

With `Oc1ccc([C@H]2COc3cc(O)ccc3C2)cc1` [equol, 4′,7-isoflavandiol], the “expression level of NAMPT gene” value in the test with NAMPT gene [1] and in the test with NAMPT gene [6] was “increased the expression levels” in each case. For the same molecule, the “expression level of SIRT1 gene” value with SIRT1 gene [2] and in the test with SIRT1 gene [7] was “increased the expression levels” in each case. Also, the “expression level of PGC-1α gene” value in the test with PGC-1α gene [3] and in the test on PGC-1α gene [8] was “increased the expression levels” each time. Further, the “NAD^+ (NAD^+/NADH ratio)” value in the test on Caco-2 cells [4] is “increased NAD^+”. Moreover, the “deacetylation of PGC-1α (acetyl PGC-1α level)” value in the test on PGC-1α is on record as “promote deacetylation of PGC-1α”. In the test on PGC-1α, the “expression level of PGC-1α (protein, Western blotting)” value is “increased the expression level of PGC-1α”. Besides, the “number of intracellular mitochondria” value in the test on Caco-2 cells [5] and in the test with C2C12 cells was “increased the number of intracellular mitochondria” throughout.
